{"source": "patent US9193720B2", "about": "“Pyridin-3-yl acetic acid derivatives as inhibitors of human immunodeficiency virus replication” (priority 2014, dated 2015)", "data": [{"tested_on": "NL-RLuc virus", "assay": "Inhibition of HIV Replication (NL-RLuc luciferase reporter virus in MT-2 cells)", "format": "cell-based", "conditions": "Human immunodeficiency virus 1, MT2, 120 h", "method_in_brief": "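Replication-competent virus with Renilla luciferase in place of part of nef, made in 293T cells and titered in MT-2 cells. Infected MT-2 cells grown 5 days with serially diluted compound in RPMI 1640/10% FBS, 10 mM HEPES pH 7.55. Luciferase read-out; EC50 from median effect equation, at least 2 experiments.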", "units": {"EC50": "nM"}, "values": [{"smiles": "CC(C)=C1CCN(c2c(-c3ccc(OCCc4ccc(F)cc4)cc3)c(C)nc(C)c2[C@H](OC(C)(C)C)C(=O)O)CC1", "note": "[Example 79, (S)-2-(tert-butoxy)-2-(5-(4-(4-fluorophenethoxy)phenyl)-2,6-dimethyl-4-(4-(propan-2-ylidene)piperidin-1-yl)pyridin-3-yl)acetic acid]", "EC50": 291}, {"smiles": "Cc1nc(C)c([C@H](OC(C)(C)C)C(=O)O)c(N2CCC(Cc3ccccc3)CC2)c1-c1ccc(OCCc2ccc(F)cc2)cc1", "note": "[Example 80, (S)-2-(4-(4-benzylpiperidin-1-yl)-5-(4-(4-fluorophenethoxy)phenyl)-2,6-dimethylpyridin-3-yl)-2-(tert-butoxy)acetic acid]", "EC50": 1770}, {"smiles": "Cc1nc(C)c([C@H](OC(C)(C)C)C(=O)O)c(N2CCC(C)(F)CC2)c1-c1ccc(OCCc2ccc(F)cc2)cc1", "note": "[Example 81, (S)-2-(tert-butoxy)-2-(4-(4-fluoro-4-methylpiperidin-1-yl)-5-(4-(4-fluorophenethoxy)phenyl)-2,6-dimethylpyridin-3-yl)acetic acid]", "EC50": 4}, {"smiles": "Cc1nc(C)c([C@H](OC(C)(C)C)C(=O)O)c(N2CC(C)CC(C)C2)c1-c1ccc(OCCc2ccc(F)cc2)cc1", "note": "(stereo partly shown) [Example 82]", "EC50": 5430}]}]}
